# Reference: patent US20100063085A1, “METHOD OF TREATING LEARNING IMPAIRMENT IN DOWN'S SYNDROME SUBJECTS” (University Court of The University of Dundee, priority 2008, published 2010)
# Read-outs that look alike come from different tables or passages of the source.
# Key:
# [1] = target: SAPK2b/p38β2 (Homo sapiens, UniProt Q15759); assay: SAPK2b/p38β2 33P kinase assay; assay type: biochemical; settings: read-out: SAPK2b/p38β2 activity as percentage of control without inhibitor; for remaining activity at 1 µM: inhibitor 1 μM
# Experimental: (§1) Assays were performed for 30 minutes except assays for LCK and PKB which were performed for 15 minutes using Multidrop Micro reagent dispensers (Thermo Electron Corporation, Waltham, Mass. 02454, USA) in a 96-well format. The concentration of […] [γ-^33P] ATP (800 cpm/pmol) in the assays was one of three concentrations (5, 20 or 50 μM) in order to be at or below Km for ATP for the enzyme. Assays were initiated with MgATP and stopped by addition of 5 μl of 0.5M orthophosphoric acid. Assays were then harvested onto P81 filterplates using a unifilter harvester (PerkinElmer, Boston, Mass. 02118, USA), with a wash buffer of 50 mM orthophosphoric acid. Filterplates were then air dried overnight. 10 μl of Microscint O was added per well prior to counting for radioactivity.
# (§2) MKK1, JNK/SAPK1c, SAPK2a/p38, SAPK2b/p38β2, SAPK3/p38γ, SAPK4/p38δ, MAPK2/ERK2, MAPKAP-K1β, MAPKAP-K2, MSK1, PRAK, PKA, PKCα, PDK1, SGK, p70S6K, GSK3β, ROCK-II, PRK2, AMPK, CHK1, CHK2, CK2, PHK, LCK, were assayed according to Davies et al., (Davies, S. P., Reddy, H., Caivano, M. and Cohen, P. Biochem. J. 351, 95-105, 2000.
# (§3) CSK and CDK2/cyclinA, were assayed according to Bain et al. (Bain J, McLauchlan H, Elliott M, Cohen P. Biochem J. 371, 199-204, 2003., except that ATP concentrations were either 5, 20 or 50 micromolar so that they were at or below the Km for ATP. The ATP concentrations used were as follows, 5 μM for assays of MKK1, SAPK3, SAPK4, GSK3β, PRK2 CK2 20 μm for assays of JNK, SAPK2β, MAPKAP-K2, MSK1, PRAK, PKA, […], PDK1, SGK, p70S6K, ROCK-II, CHK1, CHK2, CSK, CDK2, and 50 μM for assays of SAPK2a, MAPK2/ERK2, AMPK, LCK, PHK and MAPKAP-K1β.
# [2] = target: MAPKAP-K1b (Homo sapiens, UniProt P51812); assay: MAPKAP-K1b 33P kinase assay; assay type: biochemical; settings: read-out: MAPKAP-K1b activity as percentage of control without inhibitor
# Experimental: (§4) All assays (25.5 μl) were carried out at room temperature (21° C.) and were linear with respect to time and enzyme concentrations under the conditions used. Assays were performed for 30 minutes except assays for LCK and PKB which were performed for 15 minutes using Multidrop Micro reagent dispensers (Thermo Electron Corporation, Waltham, Mass. 02454, USA) in a 96-well format. The concentration of […] [γ-^33P] ATP (800 cpm/pmol) in the assays was one of three concentrations (5, 20 or 50 μM) in order to be at or below Km for ATP for the enzyme. Assays were initiated with MgATP and stopped by addition of 5 μl of 0.5M orthophosphoric acid. Assays were then harvested onto P81 filterplates using a unifilter harvester (PerkinElmer, Boston, Mass. 02118, USA), with a wash buffer of 50 mM orthophosphoric acid. Filterplates were then air dried overnight. 10 μl of Microscint O was added per well prior to counting for radioactivity.
# as §2, §3
# [3] = target: PKA (Homo sapiens, UniProt P17612); assay: PKA 33P kinase assay; assay type: biochemical; settings: read-out: PKA activity as percentage of control without inhibitor; for remaining activity at 1 µM: inhibitor 1 μM; for remaining activity at 10 µM: inhibitor 10 μM
# Experimental: as §4, §2, §3
# [4] = target: Lck (Homo sapiens, UniProt P06239); assay: Lck 33P kinase assay; assay type: biochemical; settings: read-out: Lck activity as percentage of control without inhibitor; for remaining activity at 1 µM: inhibitor 1 μM
# Experimental: as §1, §2, §3
# [5] = target: Src (Homo sapiens, UniProt P12931); assay: biochemical; settings: read-out: Src activity as percentage of control without inhibitor; for remaining activity at 10 µM: inhibitor 10 μM
# Experimental: as §1
# (§5) The following kinases were assayed against the substrates indicated. Aurora B was assayed against the substrate peptide […] (300 μM), ERK8 and MST-2 were both assayed against MBP (0.33 mg/ml). IKKβ was assayed against the substrate peptide […] (300 μM), JNK3 was assayed against 3 μM ATF2[19-96]. MAPKAP-K3 and PKD1 were both assayed against […] (30 μM), MARK3 was assayed against CHKtide ([…]) substrate peptide (300 μM). MNK1 and MNK2 were both assayed against eIF4E protein (0.5 mg/ml). NEK7 was assayed against […] (300 μM), PIM2 was assayed against […] (300 μM), ΔPH PKBβ-S474D was assayed against Crosstide (30 μM), PLK1 was assayed against […] (300 μM). PRK2 was assayed against Long S6 peptide, […] (30 μM), RSK2 was assayed against […] (30 μM), SRC was assayed against cdc2 peptide, […], (300 μM) and SRPK1 was assayed against peptide […] (300 μM). All enzymes were diluted in 50 mM Tris/HCl pH 7.5, 0.1 mM EGTA, 1 mg/ml BSA, 0.1% β-mercaptoethanol buffer and assayed in an incubation containing 50 mM Tris/HCl pH7.5, 0.1 mM EGTA, 0.1% β-mercaptoethanol, CAMK-1 (5-20 mU) diluted in 50 mM Tris/HCl pH 7.5, 0.1 mM EGTA, 1 mg/ml BSA, 0.1% β-mercaptoethanol is assayed against substrate peptide […] in an incubation containing 50 mM Tris/HCl pH 7.5, 0.1 mM EGTA, 0.5 mM CaCl2, 0.3 μM calmodulin, 0.1% β-mereaptoethanol, 300 μM substrate peptide, 10 mM magnesium acetate and 0.05 mM [^33P-γ-ATP] (500-1000 cpm/pmole). EF2K (5-20 mU) diluted in 50 mM Hepes pH 6.6, 0.1% β-mercaptoethanol, 1 mg/ml BSA is assayed against a substrate peptide […] in an incubation containing 50 mM Hepes pH 6.6, 0.2 mM CaCl2, 0.3 μM Calmodulin, 0.05% b-mercaptoethanol, 300 μM substrate peptide, 10 mM magnesium acetate and 0.05 mM [^33P-γ-ATP] (500-1000 cpm/pmole).
# [6] = target: PLK1 (Homo sapiens, UniProt P53350); assay: PLK1 33P kinase assay; assay type: biochemical; settings: read-out: PLK1 activity as percentage of control without inhibitor
# Experimental: as §4, §5
# Sequence of Lck (P06239 whole entry, species assumed): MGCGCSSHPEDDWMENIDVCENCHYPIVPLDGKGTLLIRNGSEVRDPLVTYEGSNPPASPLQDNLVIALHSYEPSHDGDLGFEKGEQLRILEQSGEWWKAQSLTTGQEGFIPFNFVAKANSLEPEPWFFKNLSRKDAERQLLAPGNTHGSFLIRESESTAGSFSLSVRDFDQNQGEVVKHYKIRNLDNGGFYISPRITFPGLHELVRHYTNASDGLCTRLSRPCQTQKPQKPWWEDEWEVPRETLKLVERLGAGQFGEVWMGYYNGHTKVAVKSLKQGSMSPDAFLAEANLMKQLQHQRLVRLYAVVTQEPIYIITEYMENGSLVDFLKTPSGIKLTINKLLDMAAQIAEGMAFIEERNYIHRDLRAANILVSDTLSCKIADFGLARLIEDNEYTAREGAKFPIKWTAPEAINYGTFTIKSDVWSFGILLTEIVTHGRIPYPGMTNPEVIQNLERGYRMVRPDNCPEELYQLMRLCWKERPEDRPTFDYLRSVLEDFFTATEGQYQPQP
# Sequence of MAPKAP-K1b (P51812 whole entry, species assumed): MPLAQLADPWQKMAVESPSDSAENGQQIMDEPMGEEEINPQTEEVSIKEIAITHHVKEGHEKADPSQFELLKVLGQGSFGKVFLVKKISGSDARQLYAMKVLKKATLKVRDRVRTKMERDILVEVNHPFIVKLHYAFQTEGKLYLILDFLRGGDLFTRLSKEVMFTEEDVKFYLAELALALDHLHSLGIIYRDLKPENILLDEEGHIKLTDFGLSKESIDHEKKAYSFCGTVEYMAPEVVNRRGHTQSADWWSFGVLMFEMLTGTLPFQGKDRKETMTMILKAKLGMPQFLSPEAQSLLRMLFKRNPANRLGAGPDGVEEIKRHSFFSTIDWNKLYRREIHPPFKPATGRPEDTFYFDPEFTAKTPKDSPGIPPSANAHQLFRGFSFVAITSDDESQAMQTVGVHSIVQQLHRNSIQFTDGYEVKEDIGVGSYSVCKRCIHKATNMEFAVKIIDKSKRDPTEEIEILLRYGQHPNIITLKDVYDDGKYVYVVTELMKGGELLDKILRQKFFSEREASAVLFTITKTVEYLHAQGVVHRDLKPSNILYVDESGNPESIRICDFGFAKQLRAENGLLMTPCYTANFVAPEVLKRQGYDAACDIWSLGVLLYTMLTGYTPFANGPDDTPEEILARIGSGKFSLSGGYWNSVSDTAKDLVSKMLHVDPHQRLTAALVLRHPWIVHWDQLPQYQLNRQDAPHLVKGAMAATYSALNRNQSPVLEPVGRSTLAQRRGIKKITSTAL
# Sequence of SAPK2b/p38β2 (Q15759 whole entry): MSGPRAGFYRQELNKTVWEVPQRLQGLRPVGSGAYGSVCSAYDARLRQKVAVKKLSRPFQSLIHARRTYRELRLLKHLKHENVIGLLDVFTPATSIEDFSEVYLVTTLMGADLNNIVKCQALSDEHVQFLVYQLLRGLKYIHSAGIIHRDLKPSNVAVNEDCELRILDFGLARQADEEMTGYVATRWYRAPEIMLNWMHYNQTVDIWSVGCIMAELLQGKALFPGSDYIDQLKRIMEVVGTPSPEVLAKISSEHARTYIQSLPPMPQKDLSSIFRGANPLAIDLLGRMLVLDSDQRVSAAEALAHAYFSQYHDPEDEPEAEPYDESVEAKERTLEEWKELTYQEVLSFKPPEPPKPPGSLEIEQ
# Sequence of Src (P12931 whole entry, species assumed): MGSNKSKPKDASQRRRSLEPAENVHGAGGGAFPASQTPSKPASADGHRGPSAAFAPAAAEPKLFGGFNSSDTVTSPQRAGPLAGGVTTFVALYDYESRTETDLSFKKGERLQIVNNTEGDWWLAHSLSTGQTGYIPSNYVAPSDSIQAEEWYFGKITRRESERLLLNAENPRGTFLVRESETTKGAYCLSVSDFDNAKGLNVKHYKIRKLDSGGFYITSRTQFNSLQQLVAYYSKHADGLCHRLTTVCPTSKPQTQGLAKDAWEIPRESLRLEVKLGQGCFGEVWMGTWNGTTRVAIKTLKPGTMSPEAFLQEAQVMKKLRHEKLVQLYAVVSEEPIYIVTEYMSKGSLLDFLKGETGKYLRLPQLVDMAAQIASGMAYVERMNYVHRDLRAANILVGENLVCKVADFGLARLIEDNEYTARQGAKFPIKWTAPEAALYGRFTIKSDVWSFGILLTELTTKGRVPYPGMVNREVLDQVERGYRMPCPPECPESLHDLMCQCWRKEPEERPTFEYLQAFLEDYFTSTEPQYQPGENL
# Sequence of PLK1 (P53350 whole entry, species assumed): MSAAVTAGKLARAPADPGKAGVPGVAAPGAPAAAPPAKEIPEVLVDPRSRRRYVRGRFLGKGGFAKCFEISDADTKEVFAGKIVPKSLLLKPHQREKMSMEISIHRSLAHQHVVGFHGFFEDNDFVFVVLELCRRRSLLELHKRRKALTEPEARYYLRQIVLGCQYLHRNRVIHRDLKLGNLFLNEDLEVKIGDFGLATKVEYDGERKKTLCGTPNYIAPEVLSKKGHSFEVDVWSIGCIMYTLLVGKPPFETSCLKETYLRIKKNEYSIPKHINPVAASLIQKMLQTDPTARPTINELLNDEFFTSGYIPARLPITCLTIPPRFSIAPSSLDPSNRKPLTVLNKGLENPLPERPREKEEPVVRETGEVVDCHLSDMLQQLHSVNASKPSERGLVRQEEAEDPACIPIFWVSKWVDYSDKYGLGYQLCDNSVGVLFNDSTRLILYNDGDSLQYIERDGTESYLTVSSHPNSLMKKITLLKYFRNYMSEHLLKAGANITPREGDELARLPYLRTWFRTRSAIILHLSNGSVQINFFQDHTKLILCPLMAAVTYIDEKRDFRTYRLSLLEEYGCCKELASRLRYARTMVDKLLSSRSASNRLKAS
SMILES,remaining activity at 1 µM [1] [%],remaining activity at 10 µM ([1]; inhibitor 10 μM) [%],remaining activity at 1 µM ([2]; inhibitor 1 μM) [%],remaining activity at 10 µM ([2]; inhibitor 10 μM) [%],remaining activity at 1 µM [3] [%],remaining activity at 10 µM [3] [%],remaining activity at 1 µM [4] [%],remaining activity at 10 µM ([4]; inhibitor 10 μM) [%],remaining activity at 1 µM ([5]; inhibitor 1 μM) [%],remaining activity at 10 µM [5] [%],remaining activity at 1 µM ([6]; inhibitor 1 μM) [%],remaining activity at 10 µM ([6]; inhibitor 10 μM) [%],remaining activity at 10 µM [1] [%],remaining activity at 1 µM [2] [%],remaining activity at 10 µM [2] [%],remaining activity at 10 µM [4] [%],remaining activity at 1 µM [5] [%],remaining activity at 1 µM [6] [%],remaining activity at 10 µM [6] [%]
COc1ccc2c3c([nH]c2c1)C(C)=NCC3 [Harmaline],91,93,87,80,70,86,77,87,47,65,92,100,–,–,–,–,–,–,–
CC1=NCCc2c1[nH]c1cc(O)ccc21 [Harmalol],88,79,87,67,90,75,85,68,101,83,88,81,–,–,–,–,–,–,–
COc1ccc2c(c1)[nH]c1c(C)nccc12 [Harmine],–,–,–,–,82,92,–,–,–,–,–,–,87,89,95,91,108,92,87
